Data published in patent US6369225B1, “Compounds having activity as inhibitors of cytochrome P450RAI” (Allergan Sales, Inc., priority 2000, dated 2002).

Key:
RARα = molecular target: T1, RARα (Homo sapiens, UniProt P10276); assay: ligand binding assay, RARα; details: Kd line of EC50/(EFFICACY)/Kd, read-out: RAR Kd α
T1 sequence (P10276 1-462): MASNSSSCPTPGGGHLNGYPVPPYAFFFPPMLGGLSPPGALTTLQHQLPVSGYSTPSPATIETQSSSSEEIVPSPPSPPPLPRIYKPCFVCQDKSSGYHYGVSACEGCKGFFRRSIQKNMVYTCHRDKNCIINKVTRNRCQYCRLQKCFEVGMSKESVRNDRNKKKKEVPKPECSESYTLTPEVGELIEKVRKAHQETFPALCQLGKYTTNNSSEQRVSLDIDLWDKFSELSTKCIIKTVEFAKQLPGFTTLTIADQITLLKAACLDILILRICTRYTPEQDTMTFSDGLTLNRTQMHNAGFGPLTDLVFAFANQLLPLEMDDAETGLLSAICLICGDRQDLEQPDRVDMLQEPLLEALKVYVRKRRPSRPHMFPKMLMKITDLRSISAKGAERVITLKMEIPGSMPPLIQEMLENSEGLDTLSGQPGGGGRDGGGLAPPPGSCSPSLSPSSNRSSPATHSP

P450RAI-1 = molecular target: T2, P450RAI-1 (Homo sapiens, UniProt O43174); assay: P450RAI-1 cell-based inhibitor assay; details: P450RAI-1 stably transfected HeLa cells, [3H]-RA metabolism, 3 hours at 37° C.; read-out: P450RAI INHIBITION DATA INTACT HELA IC50
T2 construct: expressed in transfected cells; host or cells: HeLa cells, stably transfected, hygromycin selection
T2 sequence (O43174 1-497): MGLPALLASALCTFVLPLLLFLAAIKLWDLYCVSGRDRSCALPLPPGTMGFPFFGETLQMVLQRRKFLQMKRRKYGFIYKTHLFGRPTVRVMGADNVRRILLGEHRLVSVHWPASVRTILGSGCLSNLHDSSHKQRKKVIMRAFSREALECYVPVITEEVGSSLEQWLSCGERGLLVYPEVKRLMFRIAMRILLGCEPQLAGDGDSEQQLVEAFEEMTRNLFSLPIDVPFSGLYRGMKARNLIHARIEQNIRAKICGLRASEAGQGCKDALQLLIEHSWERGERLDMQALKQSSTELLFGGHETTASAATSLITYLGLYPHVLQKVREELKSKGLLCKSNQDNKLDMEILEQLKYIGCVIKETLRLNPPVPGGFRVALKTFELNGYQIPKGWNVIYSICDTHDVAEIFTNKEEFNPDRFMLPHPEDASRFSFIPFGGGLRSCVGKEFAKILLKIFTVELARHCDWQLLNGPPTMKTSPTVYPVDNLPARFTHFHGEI
Outline: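 HeLa cells stably expressing the enzyme (5×10^5/well) incubated 3 h at 37 °C with 0.05 μCi [3H]-all-trans-RA and compound at 10, 1 or 0.1 μM in triplicate. Water-soluble radioactive metabolites counted by scintillation; IC50 derived manually from log-transformed data.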

RARγ = molecular target: T3, RARγ (Homo sapiens, UniProt P13631); assay: ligand binding assay, RARγ; details: Kd line of EC50/(EFFICACY)/Kd, read-out: RAR Kd γ
T3 sequence (P13631 1-454): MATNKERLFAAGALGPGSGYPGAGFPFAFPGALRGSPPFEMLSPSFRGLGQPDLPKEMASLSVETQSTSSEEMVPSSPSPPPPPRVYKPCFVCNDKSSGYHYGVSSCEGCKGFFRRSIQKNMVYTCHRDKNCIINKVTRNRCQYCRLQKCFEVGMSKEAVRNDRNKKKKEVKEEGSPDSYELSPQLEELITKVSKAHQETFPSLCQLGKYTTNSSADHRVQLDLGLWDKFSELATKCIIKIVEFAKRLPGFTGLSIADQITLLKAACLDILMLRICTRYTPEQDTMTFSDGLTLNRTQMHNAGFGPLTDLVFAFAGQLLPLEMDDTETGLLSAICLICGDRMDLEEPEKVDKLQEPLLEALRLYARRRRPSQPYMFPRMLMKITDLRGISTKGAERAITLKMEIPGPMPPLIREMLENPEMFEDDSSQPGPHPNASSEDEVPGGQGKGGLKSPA

Row | SMILES | Kd (RARα) [nM] | IC50 (P450RAI-1) [nM] | Kd (RARγ) [nM]
1 | CC1(C)CC2(CC2)Oc2ccc(C#Cc3ccc(C(=O)O)c(F)c3)cc21 [Compound 44, 2-Fluoro-benzoic Acid, 4-[(3,4-dihydro-4,4-dimethylspiro[2H-1-benzopyran-2,1′-cyclopropane]-6-yl)ethynyl]-] | 37 | 270 | 392
2 | CC(C)OC1(c2ccc(C#Cc3ccc(C(=O)O)cc3)cc2)CC1 [Compound 73, 4-[4-(1-Isopropoxycyclopropyl)-phenylethynyl]-benzoic Acid] | 486 | > 10000 | 351
3 | Cc1cc(C#Cc2ccc(C(=O)O)cc2)ccc1C1(OCC(C)(C)C)CC1 [Compound 89, 4-[4-[1-(2,2-Dimethylpropyloxy)-cyclopropyl]-3-methyl-phenylethynyl]-benzoic Acid] | 3410 | > 10000 | 475
4 | COC1(c2ccc(C#Cc3ccc(C(=O)O)cc3)cc2)CC1 [Compound 69, 4-[4-(1-Methoxycyclopropyl)-phenylethynyl]-benzoic Acid] | 469 | > 10000 | 501
5 | CC1(C)CCC(=O)c2ccc(C#Cc3ccc(CC(=O)O)cc3)cc21 [Compound 5, 4-[(8,8-Dimethyl-5-oxo-5,6,7,8-tetrahydro-naphthalene-2-yl-ethynyl)-phenyl]-acetic Acid] | 9150 | 550 | > 10000
6 | O=C(O)c1ccc(C#Cc2ccc(C3(NCc4ccccc4)CC3)cc2)cc1 [Compound 112, 4-[4-(1-Benzylamino-cyclopropyl)-phenylethynyl]-benzoic Acid] | 5850 | > 10000 | 685
7 | CCCN(CCC)C1(c2ccc(C#Cc3ccc(C(=O)O)cc3)cc2)CC1 [Compound 110, 4-[4-(1-Dipropylamino-cyclopropyl)-phenylethynyl]-benzoic Acid] | 2060 | > 10000 | < 10000
8 | Cc1cc(C#Cc2ccc(C(=O)O)cc2)ccc1C1(OC(C)C)CC1 [Compound 85, 4-[4-(1-Isopropoxycyclopropyl)-3-methyl-phenylethynyl]-benzoic Acid] | 1860 | > 10000 | 302
9 | Cc1cc(C#Cc2ccc(C(=O)O)cc2)ccc1C1(OCc2ccccc2)CC1 [Compound 81, 4-[4-(1-Benzyloxycyclopropyl)-3-methyl-phenylethynyl]-benzoic Acid] | 4210 | > 10000 | 1060
10 | CCc1cc(C#Cc2ccc(C(=O)O)cc2)ccc1C1(OCc2ccccc2)CC1 [Compound 93, 4-[4-(1-Benzyloxycyclopropyl)-3-ethyl-phenylethynyl]-benzoic Acid] | 3450 | > 10000 | 358
11 | CN(C1CC1)C1CCC(C)(C)c2cc(C#Cc3ccc(CC(=O)O)cc3)ccc21 (centres unmarked) [Compound 8, 4-[(5-(Cyclopropyl-methyl-amino)-8,8-dimethyl-5,6,7,8-tetrahydro-naphthalene-2-yl-ethynyl)-phenyl]-acetic Acid] | – | 400 | 25000
12 | CN(C1CC1)C1CCC(C)(C)c2cc(C#Cc3ccc(C(=O)O)cc3)ccc21 (centres unmarked) [Compound 3, 4-[(5-Cyclopropyl-methyl-amino)-8,8-dimethyl-5,6,7,8-tetrahydro-naphthalene-2yl-ethynyl]-benzoic Acid] | 145 | 3000 | 158
13 | CCCNC1(c2ccc(C#Cc3ccc(C(=O)O)cc3)cc2)CC1 [Compound 108, 4-[4-(1-Propylamino-cyclopropyl)-phenylethynyl]-benzoic Acid] | 21000 | > 10000 | 13000
14 | CC1(C)CC2(CC2)Oc2ccc(C#Cc3ccc(C(=O)O)cc3)cc21 [Compound 40, Benzoic Acid, 4-[(3,4-dihydro-4,4-dimethylspiro[2H-1-benzopyran-2,1′-cyclopropane]-6-yl)ethynyl]-] | 69 | 1700 | 363
